According to PubChem BioAssay (NCI):
“And” between values parts separate entries of the source, which are not always exact repeats. Identical values can stand only once.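 Cells were grown in 96-well plates and exposed to each compound for 48 hours at five concentrations; endpoints were interpolated linearly between bracketing concentrations, or set to the highest concentration if not reached. GI50 = concentration required for 50% inhibition of growth. TGI denotes the concentration required for complete inhibition of growth.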

Key:
Assay in all cases: inhibition of tumour cell growth, NCI panel, 48 h
CCRF-CEM leukemia = test system: CCRF-CEM leukemia
RXF 393 renal = test system: RXF 393 renal
OVCAR-4 ovarian = test system: OVCAR-4 ovarian
A498 renal = test system: A498 renal
MDA-N = test system: MDA-N
LOX IMVI melanoma = test system: LOX IMVI melanoma
786-0 renal = test system: 786-0 renal
HT29 colon = test system: HT29 colon
SK-MEL-28 melanoma = test system: SK-MEL-28 melanoma
TK-10 renal = test system: TK-10 renal
NCI-H460 lung = test system: NCI-H460 lung

## COc1ccc(OC/C(N=Cc2ccncc2)=N/NC(=O)c2ccncc2)cc1
CCRF-CEM leukemia
  TGI: > 100 µM
RXF 393 renal
  TGI: > 100 µM
OVCAR-4 ovarian
  TGI: > 100 µM
A498 renal
  TGI: > 100 µM
MDA-N
  TGI: 39.8 µM
LOX IMVI melanoma
  TGI: > 100 µM
786-0 renal
  TGI: > 100 µM
HT29 colon
  TGI: > 100 µM
SK-MEL-28 melanoma
  TGI: > 100 µM
TK-10 renal
  TGI: > 100 µM
NCI-H460 lung
  TGI: > 100 µM

## Clc1cc(C(c2cc(Cl)sc2Cl)c2cc(Cl)sc2Cl)c(Cl)s1
CCRF-CEM leukemia
  TGI: > 100 µM
RXF 393 renal
  TGI: > 100 µM
OVCAR-4 ovarian
  TGI: > 100 µM
A498 renal
  TGI: > 100 µM
MDA-N
  TGI: > 100 µM
LOX IMVI melanoma
  TGI: > 100 µM
786-0 renal
  TGI: > 100 µM
HT29 colon
  TGI: > 100 µM
SK-MEL-28 melanoma
  TGI: > 100 µM
TK-10 renal
  TGI: > 100 µM
NCI-H460 lung
  TGI: > 100 µM

## CC1(C)OC[C@@H](C[C@H](O)COCc2ccccc2)O1
CCRF-CEM leukemia
  TGI: > 100 µM
RXF 393 renal
  TGI: > 100 µM
OVCAR-4 ovarian
  TGI: > 100 µM
A498 renal
  TGI: > 100 µM
MDA-N
  TGI: > 100 µM
LOX IMVI melanoma
  TGI: > 100 µM
786-0 renal
  TGI: > 100 µM
HT29 colon
  TGI: > 100 µM
SK-MEL-28 melanoma
  TGI: > 100 µM
TK-10 renal
  TGI: > 100 µM
NCI-H460 lung
  TGI: > 100 µM

## COc1cccc(N2C(=O)CS(=O)(=O)C2c2cccc(Oc3ccccc3)c2)c1 (stereo unspecified)
CCRF-CEM leukemia
  TGI: > 100 µM
RXF 393 renal
  TGI: 71.1 µM
OVCAR-4 ovarian
  TGI: > 100 µM
A498 renal
  TGI: 36.7 µM
MDA-N
  TGI: 6.45 µM
LOX IMVI melanoma
  TGI: 51.1 µM
786-0 renal
  TGI: 44.4 µM
HT29 colon
  TGI: 89.3 µM
SK-MEL-28 melanoma
  TGI: > 100 µM
TK-10 renal
  TGI: 47.4 µM
NCI-H460 lung
  TGI: 31.1 µM

## Nc1nncc2[nH]cnc12
CCRF-CEM leukemia
  TGI: 20.7 µM
RXF 393 renal
  TGI: > 100 µM
OVCAR-4 ovarian
  TGI: > 100 µM
A498 renal
  TGI: > 100 µM
MDA-N
  TGI: > 100 µM
LOX IMVI melanoma
  TGI: > 100 µM
786-0 renal
  TGI: > 100 µM
HT29 colon
  TGI: > 100 µM
SK-MEL-28 melanoma
  TGI: > 100 µM
TK-10 renal
  TGI: > 100 µM
NCI-H460 lung
  TGI: > 100 µM

## CC(=O)OCC(=O)O[C@@H]1[C@H]2[C@@H](OC(=O)c3ccccc3)[C@@H](C)C[C@]2(O)[C@H](OC(C)=O)[C@@]2(C)C[C@]1(OC(C)=O)C[C@H]1C(=O)C(C)(C)[C@@H](OC(C)=O)[C@@H]12
CCRF-CEM leukemia
  TGI: > 25 µM
RXF 393 renal
  TGI: > 25 µM
OVCAR-4 ovarian
  TGI: > 25 µM
A498 renal
  TGI: > 23.8 µM
MDA-N
  TGI: > 25 µM
LOX IMVI melanoma
  TGI: > 25 µM
786-0 renal
  TGI: > 25 µM
HT29 colon
  TGI: > 25 µM
SK-MEL-28 melanoma
  TGI: > 25 µM
TK-10 renal
  TGI: > 25 µM
NCI-H460 lung
  TGI: > 25 µM

## CNC(=S)NNc1ncnc2c1c(-c1ccc(Cl)cc1)cn2-c1ccc(C)cc1
CCRF-CEM leukemia
  TGI: > 100 µM
RXF 393 renal
  TGI: 32.3 µM
OVCAR-4 ovarian
  TGI: 37.6 µM
A498 renal
  TGI: 49.6 µM
MDA-N
  TGI: 28 µM
LOX IMVI melanoma
  TGI: 33.5 µM
786-0 renal
  TGI: 24.2 µM
HT29 colon
  TGI: 29.8 µM
SK-MEL-28 melanoma
  TGI: 25.2 µM
TK-10 renal
  TGI: 35 µM
NCI-H460 lung
  TGI: 17.8 µM

## CCOC(=O)/C=C(/C=C\COC1CCCCO1)c1ccccc1 (stereo unspecified)
CCRF-CEM leukemia
  TGI: > 100 µM
RXF 393 renal
  TGI: 55.3 µM
OVCAR-4 ovarian
  TGI: > 100 µM
A498 renal
  TGI: > 100 µM
MDA-N
  TGI: > 100 µM
LOX IMVI melanoma
  TGI: 30.9 µM
786-0 renal
  TGI: 62.7 µM
HT29 colon
  TGI: 29.2 µM
SK-MEL-28 melanoma
  TGI: 85.7 µM
TK-10 renal
  TGI: > 100 µM
NCI-H460 lung
  TGI: > 100 µM

## COc1cc(OC)cc(Oc2nc3cc(F)c(F)cc3nc2-c2ccccc2)c1
CCRF-CEM leukemia
  TGI: > 100 µM
RXF 393 renal
  TGI: > 100 µM
OVCAR-4 ovarian
  TGI: > 100 µM
A498 renal
  TGI: > 100 µM
MDA-N
  TGI: > 100 µM
LOX IMVI melanoma
  TGI: > 100 µM
786-0 renal
  TGI: > 100 µM
HT29 colon
  TGI: > 100 µM
SK-MEL-28 melanoma
  TGI: > 100 µM
TK-10 renal
  TGI: > 100 µM
NCI-H460 lung
  TGI: > 100 µM

## COc1cc2[nH]c(=O)c3cc(-c4ccccc4)cc4c(Cl)nc(c1OC)c2c43
CCRF-CEM leukemia
  TGI: > 67 µM
RXF 393 renal
  TGI: > 55.7 µM
OVCAR-4 ovarian
  TGI: > 64.4 µM
A498 renal
  TGI: > 100 µM
MDA-N
  TGI: 13.5 µM
LOX IMVI melanoma
  TGI: > 73.6 µM
786-0 renal
  TGI: > 49.2 µM
HT29 colon
  TGI: > 60.7 µM
SK-MEL-28 melanoma
  TGI: > 100 µM
TK-10 renal
  TGI: > 70 µM
NCI-H460 lung
  TGI: > 82.9 µM

## CCCCN1C(=O)CC2[C@@H]3CCc4cc(OC)ccc4C3CC[C@]2(C)C1=O (stereo partly specified)
CCRF-CEM leukemia
  TGI: > 10 µM
RXF 393 renal
  TGI: > 10 µM
OVCAR-4 ovarian
  TGI: > 10 µM
A498 renal
  TGI: > 10 µM
MDA-N
  TGI: > 10 µM
LOX IMVI melanoma
  TGI: > 10 µM
786-0 renal
  TGI: > 10 µM
HT29 colon
  TGI: > 10 µM
SK-MEL-28 melanoma
  TGI: > 10 µM
TK-10 renal
  TGI: > 10 µM
NCI-H460 lung
  TGI: > 10 µM

## CC1(C)N=C(N)N=C(N)N1c1cccc(OCc2cccc(N)c2)c1
CCRF-CEM leukemia
  TGI: > 100 µM
RXF 393 renal
  TGI: > 100 µM
OVCAR-4 ovarian
  TGI: > 100 µM
A498 renal
  TGI: > 100 µM
MDA-N
  TGI: > 100 µM
LOX IMVI melanoma
  TGI: > 100 µM
786-0 renal
  TGI: > 100 µM
HT29 colon
  TGI: > 100 µM
SK-MEL-28 melanoma
  TGI: > 100 µM
TK-10 renal
  TGI: > 100 µM
NCI-H460 lung
  TGI: > 100 µM

## Cc1cc(S(=O)(=O)Nc2n[nH]c(Nc3ccccc3)n2)c(SCC(=O)O)cc1Cl
CCRF-CEM leukemia
  TGI: > 100 µM
RXF 393 renal
  TGI: > 100 µM
OVCAR-4 ovarian
  TGI: > 100 µM
A498 renal
  TGI: > 100 µM
MDA-N
  TGI: > 100 µM
LOX IMVI melanoma
  TGI: > 100 µM
786-0 renal
  TGI: > 100 µM
HT29 colon
  TGI: > 100 µM
SK-MEL-28 melanoma
  TGI: > 100 µM
TK-10 renal
  TGI: > 100 µM
NCI-H460 lung
  TGI: > 100 µM

## O=P1(C(O)/C=C/c2ccccc2)N(Cc2ccccc2)[C@@H]2CCCC[C@H]2N1Cc1ccccc1 (stereo partly specified)
CCRF-CEM leukemia
  TGI: > 100 µM
RXF 393 renal
  TGI: 23.5 µM
OVCAR-4 ovarian
  TGI: 26.5 µM
A498 renal
  TGI: 11.2 µM
MDA-N
  TGI: 18.2 µM
LOX IMVI melanoma
  TGI: 13.7 µM
786-0 renal
  TGI: 18.8 µM
HT29 colon
  TGI: 21.5 µM
SK-MEL-28 melanoma
  TGI: 28.1 µM
TK-10 renal
  TGI: 28.5 µM
NCI-H460 lung
  TGI: 14.7 µM

## COCC#C[C@@]1(O)CCCCC1CC(OC)OC (stereo partly specified)
CCRF-CEM leukemia
  TGI: > 100 µM
RXF 393 renal
  TGI: > 100 µM
OVCAR-4 ovarian
  TGI: > 100 µM
A498 renal
  TGI: > 100 µM
MDA-N
  TGI: > 100 µM
LOX IMVI melanoma
  TGI: > 100 µM
786-0 renal
  TGI: > 100 µM
HT29 colon
  TGI: > 100 µM
SK-MEL-28 melanoma
  TGI: > 100 µM
TK-10 renal
  TGI: > 100 µM
NCI-H460 lung
  TGI: > 100 µM

## CCOc1snc(C(Cl)(Cl)Cl)c1Cl
CCRF-CEM leukemia
  TGI: 54.5 µM
RXF 393 renal
  TGI: 27.6 µM
OVCAR-4 ovarian
  TGI: > 100 µM
A498 renal
  TGI: 62.8 µM
MDA-N
  TGI: > 100 µM
LOX IMVI melanoma
  TGI: 42.8 µM
786-0 renal
  TGI: > 100 µM
HT29 colon
  TGI: 28.9 µM
SK-MEL-28 melanoma
  TGI: 94 µM
TK-10 renal
  TGI: > 100 µM
NCI-H460 lung
  TGI: > 100 µM

## CCOc1ccc(N=Nc2ccc3cc(/C(C)=N/NC(=O)/C(C#N)=C\c4ccc(N(CCC#N)CCC#N)cc4)c(=O)oc3c2)cc1
CCRF-CEM leukemia
  TGI: > 10 µM
RXF 393 renal
  TGI: > 10 µM
OVCAR-4 ovarian
  TGI: > 10 µM
A498 renal
  TGI: > 10 µM
MDA-N
  TGI: > 10 µM
LOX IMVI melanoma
  TGI: > 10 µM
786-0 renal
  TGI: > 10 µM
HT29 colon
  TGI: > 10 µM
SK-MEL-28 melanoma
  TGI: > 10 µM
TK-10 renal
  TGI: > 10 µM
NCI-H460 lung
  TGI: > 10 µM

## COc1ccc(C2Oc3c(OC)cc(CCCO)cc3C2CO)cc1OC (stereo unspecified)
CCRF-CEM leukemia
  GI50: 37.9 µM and > 100 µM
  TGI: > 100 µM
RXF 393 renal
  TGI: > 100 µM
OVCAR-4 ovarian
  TGI: > 100 µM
A498 renal
  GI50: 26.1 µM and 73.4 µM
  TGI: 88 µM and > 100 µM
MDA-N
  TGI: > 100 µM
LOX IMVI melanoma
  GI50: > 100 µM and 17 µM
  TGI: > 100 µM
786-0 renal
  TGI: > 100 µM
HT29 colon
  TGI: > 100 µM
SK-MEL-28 melanoma
  TGI: > 100 µM
TK-10 renal
  TGI: > 100 µM
NCI-H460 lung
  TGI: > 100 µM
